Test results: patent US9540299B2, “MTOR-independent activator of TFEB for autophagy enhancement and uses thereof” (Hong Kong Baptist University, priority 2015, dated 2017)

How the values were obtained:
[1] = test system: N2a cells; experiment: LC3 puncta and tfLC3 autophagy flux imaging in N2a cells; assay type: cell-based, mouse; settings: N2a cells transfected with tfLC3, 12 hours
Procedure: N2a cells are treated with E4 (1 μM) in the presence or absence of CQ for 12 hours. The cells are fixed and stained with LC3 antibody (red) and DAPI (blue). Representative cells are then selected and photographed under a DeltaVision Deconvolution Microscope (GE Healthcare).
N2a cells are transiently transfected with mRFP-GFP-LC3 (tfLC3) plasmid and then treated with E4 (1 μM) or CQ (1 μM) for 12 hours. Representative cells are then selected and photographed under a DeltaVision Deconvolution Microscope (GE Healthcare).
After transiently knockdown the expression of TFEB, N2a cells are treated with E4 (1 μM) for 12 hours, the cells were then stained with LC3 antibody (red) and DAPI (blue).
Cells are seeded on coverslips placed in 24-well plates. For autophagy flux assay, cells are transfected with tfLC3 plasmid for 24 hours and then treated with the indicated compounds. For other assays, at the end drug treatment, slices are fixed with 3.7% paraformaldehyde, permeabilized in 0.2% Triton X-100 and blocked with 5% BSA. After blocking, the slices are stained with anti-TFEB (1:200) or anti-LC3 (1:500) antibodies overnight at 4° C. […] Cells are visualized using the Eclipse 80i fluorescence microscope (Nikon Instruments Inc.) or the DeltaVision Deconvolution Microscope (GE Healthcare).

[2] = target: T1, 3×Flag-TFEB (Homo sapiens, UniProt P19484); experiment: Nuclear translocation of Flag-TFEB in Hela cells stably expressing 3×Flag-TFEB (immunostaining, western blot); assay type: cell-based; settings: analogs 1 μM, curcumin 10 μM, 12 h, Torin 1 1 μM, 2 h
T1 construct: expressed in transfected cells
T1 sequence (P19484 1-476): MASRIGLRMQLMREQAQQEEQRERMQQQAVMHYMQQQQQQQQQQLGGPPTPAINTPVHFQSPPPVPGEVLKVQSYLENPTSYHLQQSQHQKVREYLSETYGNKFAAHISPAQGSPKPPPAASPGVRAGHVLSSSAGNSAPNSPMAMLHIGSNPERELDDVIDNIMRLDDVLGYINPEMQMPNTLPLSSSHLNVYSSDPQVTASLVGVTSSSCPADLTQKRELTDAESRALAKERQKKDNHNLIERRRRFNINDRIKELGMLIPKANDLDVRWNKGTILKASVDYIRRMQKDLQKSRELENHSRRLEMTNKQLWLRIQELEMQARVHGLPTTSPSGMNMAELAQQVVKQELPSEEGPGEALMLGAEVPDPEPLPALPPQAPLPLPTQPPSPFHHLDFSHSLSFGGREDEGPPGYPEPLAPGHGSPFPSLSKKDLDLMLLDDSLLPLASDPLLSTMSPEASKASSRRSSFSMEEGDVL
Procedure: Cells were treated with curcumin (Cur, 10 μM), A2, B3 and C1 (1 μM) for 12 h. […] Data is quantified by ImageJ software and is presented as mean±SD of three replicates for each treatment conditions. At least 1000 cells are analyzed in each treatment group. *p<0.05 vs. the control (0.1% DMSO). FIG. 4C is a western blot showing the expression of endogenous TFEB. […] Data are presented as the mean±SD from three independent experiments. *p<0.05 vs. the control (0.1% DMSO). FIG. 4E is fluorescence images showing expression of 3×Flag-TFEB in Hela cells having treated with Cur (10 μM), A2, B3 and C1 (1 μM) for 12 h. Torin 1 (1 μM) treatment for 2 h is used as a positive control. Cells were fixed and stained with anti-Flag antibody. […] FIG. 4G is the western blot showing the expression of Flag-tagged TFEB in the cytosolic (Cyt.) and nuclear (Nuc.) fractions. ACTB and H3F3A (H3 histone, family 3A) are used as loading control of cytoplasmic and nuclear fraction, respectively. FIG. 4H is showing the relative intensity of TFEB in the cytosolic and nuclear fractions. Data are presented as the mean±SD from three independent experiments. *p<0.05 vs. the control (0.1% DMSO).
HeLa cells stably expressing 3×Flag-TFEB are treated with curcumin analogs E2, E3 and E4 (1 μM) for 12 hours. Torin 1 (1 μM) treatment for 2 hours is used as a positive control. Cells are fixed and stained with anti-Flag antibody (red) and DAPI (blue) (FIG. 18A). TFEB translocate into nucleus are quantified (FIG. 18B). Quantification data are presented as mean±SD of three replicates in a representative experiment. At least 500 cells are analyzed in each treatment group.
HeLa cells stably expressing 3×Flag-TFEB are treated with curcumin analogs E2, E3 and E4 (1 μM) for 12 hours. Torin 1 (1 μM) treatment for 2 hours is used as a positive control. The expression of TFEB in the cytosolic (Cyt.) and nuclear (Nuc.) fractions are determined by western blotting (FIG. 19A) and quantified (FIG. 19B). TUBB (β-tubulin) and H3F3A (H3 histone, family 3A) are used as loading control of cytoplasmic and nuclear fraction respectively. Quantification data are presented as the mean±SD from three independent experiments. *p<0.05 vs. the control (0.1% DMSO).
N2a, Hela and Hela cells stably expressing 3×-Flag-TFEB are cultured in DMEM supplemented with 10% FBS. SH-SY5Y cells are cultured in DMEM/F12 supplemented with 10% FBS. For drug treatment, the full medium is replaced by fresh Opti-MEM I and then the compounds (in 0.1% DMSO) are added to the cells and incubated for 12 h. Inducible PC12 cells overexpressing SNCA (WT and A53T) (a kind gift from Prof. David C. Rubinsztein at Cambridge University) are grown in DMEM supplemented with 10% horse serum, 5% FBS, 50 μg/ml G418, and 150 μg/ml hygromycin B at 37° C., 10% CO2. Cells are treated with 2 μg/ml doxycycline (Dox) for 24 h to induce SNCA expression. The full medium is changed to Opti-MEM I containing the testing compounds for another 48 h.
Cells are lysed on ice in 1× Lysis Buffer (9803, Life Technologies) with complete protease inhibitor mixture (04693124001, Roche Applied Science). Animal tissues are homogenized in nine volumes of ice-cold PBS supplemented with protease inhibitors. Cytosolic and nuclear fractions are isolated using protocols similar to those described previously. Anti-Flag or TFEB antibody is added to the whole cell lysates and Dynabeads® Protein G (10003D, Life Technologies) is used for immunoprecipitation. Proteins are separated by 10-15% SDS-PAGE, transferred, and blotted with the antibodies described. The blots are then incubated with secondary antibodies or the Clean-Blot IP Detection Reagent (21230, Thermo Scientific) at room temperature for 1 h. The protein signals are detected by ECL kit (32106, Pierce) and quantified using ImageJ software.
Cells are seeded on coverslips placed in 24-well plates. […]

Structure (SMILES) | mRFP-GFP-LC3 (tfLC3) puncta (autophagy flux, autolysosome formation) [1] | nuclear translocation of Flag-TFEB [2]
CCN(CC)CCCC(C)Nc1ccnc2cc(Cl)ccc12 (centres unmarked) [CQ, chloroquine, reference compound] | induced accumulation and colocalization of both GFP and mRFP fluorescence | 
CCC(=O)N1CCN(c2ccc(-n3c(=O)ccc4cnc5ccc(-c6cnc7ccccc7c6)cc5c43)cc2C(F)(F)F)CC1 [Torin 1, reference compound] |  | significantly promotes
